According to ChEMBL document CHEMBL4804281, “STK4 inhibitors for treatment of hematologic malignancies” (2020):

Key:
[1] = target: Ribosomal protein S6 kinase alpha-2 (Homo sapiens) (UniProt Q15349); test: Inhibition of RSK3 domain 1 in human NCI-H929 cells at 10 uM by mass spectroscopic analysis relative to control; format: cell-based
[2] = target: Tyrosine-protein kinase ABL1 (Homo sapiens) (UniProt P00519); test: Inhibition of ABL in human NCI-H929 cells at 10 uM by mass spectroscopic analysis relative to control; format: cell-based
[3] = target: RAC-beta serine/threonine-protein kinase (Homo sapiens) (UniProt P31751); test: Inhibition of AKT2 in human NCI-H929 cells at 10 uM by mass spectroscopic analysis relative to control; format: cell-based
[4] = target: Calcium/calmodulin-dependent protein kinase kinase 2 (Homo sapiens) (UniProt Q96RR4); test: Inhibition of CAMKK2 in human NCI-H929 cells at 10 uM by mass spectroscopic analysis relative to control; format: cell-based
[5] = target: Tyrosine-protein kinase ABL2 (Homo sapiens) (UniProt P42684); test: Inhibition of ARG in human NCI-H929 cells at 10 uM by mass spectroscopic analysis relative to control; format: cell-based
[6] = target: Rho-associated protein kinase 2 (Homo sapiens) (UniProt O75116); test: Inhibition of ROCK2 in human NCI-H929 cells at 10 uM by mass spectroscopic analysis relative to control; format: cell-based
[7] = target: Rho-associated protein kinase 1 (Homo sapiens) (UniProt Q13464); test: Inhibition of ROCK1 in human NCI-H929 cells at 10 uM by mass spectroscopic analysis relative to control; format: cell-based
[8] = target: T1, Tyrosine-protein kinase Mer (Homo sapiens) (UniProt Q12866); test: Inhibition of MER in human NCI-H929 cells at 10 uM by mass spectroscopic analysis relative to control; format: cell-based
T1 sequence (whole entry): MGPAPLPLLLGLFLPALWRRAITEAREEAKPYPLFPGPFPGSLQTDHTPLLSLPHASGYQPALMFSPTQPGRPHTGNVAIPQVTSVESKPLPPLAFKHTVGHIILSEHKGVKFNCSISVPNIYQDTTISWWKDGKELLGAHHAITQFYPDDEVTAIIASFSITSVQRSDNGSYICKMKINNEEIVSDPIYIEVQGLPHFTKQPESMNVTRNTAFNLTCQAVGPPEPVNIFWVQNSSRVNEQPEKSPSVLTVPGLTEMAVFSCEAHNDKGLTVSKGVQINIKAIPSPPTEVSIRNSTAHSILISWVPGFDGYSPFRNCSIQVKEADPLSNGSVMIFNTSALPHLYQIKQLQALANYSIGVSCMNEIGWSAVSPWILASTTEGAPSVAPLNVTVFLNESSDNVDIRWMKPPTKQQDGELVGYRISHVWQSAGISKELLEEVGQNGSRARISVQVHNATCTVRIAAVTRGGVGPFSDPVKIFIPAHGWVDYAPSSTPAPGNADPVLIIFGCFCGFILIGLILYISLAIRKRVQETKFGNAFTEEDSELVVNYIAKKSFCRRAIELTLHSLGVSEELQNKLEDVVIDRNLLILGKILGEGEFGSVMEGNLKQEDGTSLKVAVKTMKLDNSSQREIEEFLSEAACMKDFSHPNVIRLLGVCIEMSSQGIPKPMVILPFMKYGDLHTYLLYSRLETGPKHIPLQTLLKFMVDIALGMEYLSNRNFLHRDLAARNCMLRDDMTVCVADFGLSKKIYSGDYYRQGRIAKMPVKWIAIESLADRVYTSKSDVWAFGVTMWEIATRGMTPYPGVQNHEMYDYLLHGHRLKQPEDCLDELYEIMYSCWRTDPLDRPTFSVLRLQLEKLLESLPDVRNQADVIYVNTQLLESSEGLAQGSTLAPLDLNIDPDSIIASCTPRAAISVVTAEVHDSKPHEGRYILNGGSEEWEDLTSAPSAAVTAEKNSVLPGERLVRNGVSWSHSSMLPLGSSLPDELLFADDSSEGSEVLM

[9] = target: T2, Tyrosine-protein kinase receptor TYRO3 (Homo sapiens) (UniProt Q06418); test: Inhibition of TYRO3 in human NCI-H929 cells at 10 uM by mass spectroscopic analysis relative to control; format: cell-based
T2 sequence (whole entry): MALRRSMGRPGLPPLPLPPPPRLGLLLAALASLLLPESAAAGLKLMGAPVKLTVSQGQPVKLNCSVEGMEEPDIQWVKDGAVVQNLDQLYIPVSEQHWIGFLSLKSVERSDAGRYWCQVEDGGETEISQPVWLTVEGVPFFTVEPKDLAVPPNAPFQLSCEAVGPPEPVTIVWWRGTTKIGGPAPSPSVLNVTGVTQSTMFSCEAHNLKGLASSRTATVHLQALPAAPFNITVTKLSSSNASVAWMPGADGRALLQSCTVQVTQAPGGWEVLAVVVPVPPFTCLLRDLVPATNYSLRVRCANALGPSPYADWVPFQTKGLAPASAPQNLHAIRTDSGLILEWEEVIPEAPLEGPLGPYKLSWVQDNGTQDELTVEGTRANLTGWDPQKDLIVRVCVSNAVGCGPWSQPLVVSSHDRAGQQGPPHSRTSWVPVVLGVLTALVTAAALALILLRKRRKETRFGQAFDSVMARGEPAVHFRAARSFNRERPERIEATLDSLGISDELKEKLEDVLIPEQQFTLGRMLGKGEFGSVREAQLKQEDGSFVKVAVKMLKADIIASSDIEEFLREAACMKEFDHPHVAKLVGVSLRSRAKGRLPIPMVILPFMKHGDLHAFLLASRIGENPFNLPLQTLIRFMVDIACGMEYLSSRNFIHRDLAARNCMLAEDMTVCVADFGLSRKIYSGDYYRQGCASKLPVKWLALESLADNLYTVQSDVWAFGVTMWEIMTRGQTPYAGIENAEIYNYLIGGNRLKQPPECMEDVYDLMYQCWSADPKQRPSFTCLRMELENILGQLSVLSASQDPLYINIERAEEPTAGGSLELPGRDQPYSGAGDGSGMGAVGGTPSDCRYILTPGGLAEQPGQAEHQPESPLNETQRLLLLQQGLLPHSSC

[10] = tested on: MAP4K2 (Homo sapiens); test: Inhibition of GCK in human NCI-H929 cells at 10 uM by mass spectroscopic analysis relative to control

Rho-associated protein kinase 1 (Homo sapiens), sequence (Q13464 2-1354 limits assumed): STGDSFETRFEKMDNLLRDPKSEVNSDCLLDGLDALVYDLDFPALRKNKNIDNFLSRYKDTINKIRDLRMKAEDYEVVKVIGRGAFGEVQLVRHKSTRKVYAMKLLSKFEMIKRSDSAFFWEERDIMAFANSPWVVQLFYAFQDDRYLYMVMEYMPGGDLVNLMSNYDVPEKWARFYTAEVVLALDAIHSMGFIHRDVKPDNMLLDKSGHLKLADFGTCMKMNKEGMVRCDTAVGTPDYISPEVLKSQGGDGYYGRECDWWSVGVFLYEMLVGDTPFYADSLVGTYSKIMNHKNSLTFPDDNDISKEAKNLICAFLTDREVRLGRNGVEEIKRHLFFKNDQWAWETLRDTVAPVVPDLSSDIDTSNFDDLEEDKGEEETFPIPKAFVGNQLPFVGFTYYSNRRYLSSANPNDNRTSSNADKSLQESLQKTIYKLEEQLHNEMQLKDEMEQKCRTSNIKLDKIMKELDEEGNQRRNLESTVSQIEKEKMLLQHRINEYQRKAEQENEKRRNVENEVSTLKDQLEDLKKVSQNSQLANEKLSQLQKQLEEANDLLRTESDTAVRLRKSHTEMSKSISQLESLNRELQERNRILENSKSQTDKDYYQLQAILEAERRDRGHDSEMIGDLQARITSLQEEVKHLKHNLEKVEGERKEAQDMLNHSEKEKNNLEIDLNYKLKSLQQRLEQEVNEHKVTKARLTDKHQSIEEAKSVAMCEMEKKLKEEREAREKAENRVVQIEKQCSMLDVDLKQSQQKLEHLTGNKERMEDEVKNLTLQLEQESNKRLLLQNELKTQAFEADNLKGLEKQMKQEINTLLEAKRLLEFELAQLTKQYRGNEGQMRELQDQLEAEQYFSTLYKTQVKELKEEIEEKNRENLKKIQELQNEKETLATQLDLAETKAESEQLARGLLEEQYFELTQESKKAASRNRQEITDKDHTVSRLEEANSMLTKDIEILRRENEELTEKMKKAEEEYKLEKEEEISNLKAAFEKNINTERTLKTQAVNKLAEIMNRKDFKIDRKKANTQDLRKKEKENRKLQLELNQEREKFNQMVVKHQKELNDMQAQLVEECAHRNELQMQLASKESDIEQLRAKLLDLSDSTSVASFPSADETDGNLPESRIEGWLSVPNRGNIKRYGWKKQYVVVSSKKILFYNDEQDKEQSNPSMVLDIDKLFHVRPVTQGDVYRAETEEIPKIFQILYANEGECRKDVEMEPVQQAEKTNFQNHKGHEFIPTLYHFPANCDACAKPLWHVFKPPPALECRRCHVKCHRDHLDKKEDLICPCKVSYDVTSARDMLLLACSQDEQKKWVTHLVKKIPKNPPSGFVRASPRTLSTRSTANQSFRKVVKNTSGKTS
Tyrosine-protein kinase ABL1 (Homo sapiens), sequence (P00519 whole entry): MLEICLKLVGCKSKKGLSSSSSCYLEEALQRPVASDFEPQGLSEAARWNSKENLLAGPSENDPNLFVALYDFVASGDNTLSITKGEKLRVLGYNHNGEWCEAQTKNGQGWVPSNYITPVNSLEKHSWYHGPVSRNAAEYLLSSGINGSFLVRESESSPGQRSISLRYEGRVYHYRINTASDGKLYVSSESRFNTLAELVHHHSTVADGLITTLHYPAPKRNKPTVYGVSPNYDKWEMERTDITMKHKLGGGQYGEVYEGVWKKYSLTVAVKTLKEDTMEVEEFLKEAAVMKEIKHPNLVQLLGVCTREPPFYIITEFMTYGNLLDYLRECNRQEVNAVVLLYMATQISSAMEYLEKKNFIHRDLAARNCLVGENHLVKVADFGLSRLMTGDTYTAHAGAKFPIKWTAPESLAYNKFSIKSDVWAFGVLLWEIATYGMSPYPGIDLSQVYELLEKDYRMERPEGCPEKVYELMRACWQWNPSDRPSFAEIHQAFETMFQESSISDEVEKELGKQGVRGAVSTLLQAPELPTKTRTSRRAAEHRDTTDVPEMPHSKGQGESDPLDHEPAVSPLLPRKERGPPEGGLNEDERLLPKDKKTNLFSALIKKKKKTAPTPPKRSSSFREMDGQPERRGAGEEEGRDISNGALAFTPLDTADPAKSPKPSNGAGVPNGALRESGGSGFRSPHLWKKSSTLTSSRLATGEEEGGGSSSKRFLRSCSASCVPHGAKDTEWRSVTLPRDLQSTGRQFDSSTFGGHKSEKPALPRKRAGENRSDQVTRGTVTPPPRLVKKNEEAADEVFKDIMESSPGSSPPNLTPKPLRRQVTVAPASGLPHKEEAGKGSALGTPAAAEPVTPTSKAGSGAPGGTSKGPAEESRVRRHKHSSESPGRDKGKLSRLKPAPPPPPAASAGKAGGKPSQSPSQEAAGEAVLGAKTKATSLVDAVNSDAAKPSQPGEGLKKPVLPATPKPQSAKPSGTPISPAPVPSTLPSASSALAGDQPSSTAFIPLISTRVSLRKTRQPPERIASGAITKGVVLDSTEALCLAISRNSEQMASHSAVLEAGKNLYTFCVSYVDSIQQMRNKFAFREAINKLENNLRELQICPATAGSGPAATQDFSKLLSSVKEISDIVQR
Rho-associated protein kinase 2 (Homo sapiens), sequence (O75116 whole entry, looked up): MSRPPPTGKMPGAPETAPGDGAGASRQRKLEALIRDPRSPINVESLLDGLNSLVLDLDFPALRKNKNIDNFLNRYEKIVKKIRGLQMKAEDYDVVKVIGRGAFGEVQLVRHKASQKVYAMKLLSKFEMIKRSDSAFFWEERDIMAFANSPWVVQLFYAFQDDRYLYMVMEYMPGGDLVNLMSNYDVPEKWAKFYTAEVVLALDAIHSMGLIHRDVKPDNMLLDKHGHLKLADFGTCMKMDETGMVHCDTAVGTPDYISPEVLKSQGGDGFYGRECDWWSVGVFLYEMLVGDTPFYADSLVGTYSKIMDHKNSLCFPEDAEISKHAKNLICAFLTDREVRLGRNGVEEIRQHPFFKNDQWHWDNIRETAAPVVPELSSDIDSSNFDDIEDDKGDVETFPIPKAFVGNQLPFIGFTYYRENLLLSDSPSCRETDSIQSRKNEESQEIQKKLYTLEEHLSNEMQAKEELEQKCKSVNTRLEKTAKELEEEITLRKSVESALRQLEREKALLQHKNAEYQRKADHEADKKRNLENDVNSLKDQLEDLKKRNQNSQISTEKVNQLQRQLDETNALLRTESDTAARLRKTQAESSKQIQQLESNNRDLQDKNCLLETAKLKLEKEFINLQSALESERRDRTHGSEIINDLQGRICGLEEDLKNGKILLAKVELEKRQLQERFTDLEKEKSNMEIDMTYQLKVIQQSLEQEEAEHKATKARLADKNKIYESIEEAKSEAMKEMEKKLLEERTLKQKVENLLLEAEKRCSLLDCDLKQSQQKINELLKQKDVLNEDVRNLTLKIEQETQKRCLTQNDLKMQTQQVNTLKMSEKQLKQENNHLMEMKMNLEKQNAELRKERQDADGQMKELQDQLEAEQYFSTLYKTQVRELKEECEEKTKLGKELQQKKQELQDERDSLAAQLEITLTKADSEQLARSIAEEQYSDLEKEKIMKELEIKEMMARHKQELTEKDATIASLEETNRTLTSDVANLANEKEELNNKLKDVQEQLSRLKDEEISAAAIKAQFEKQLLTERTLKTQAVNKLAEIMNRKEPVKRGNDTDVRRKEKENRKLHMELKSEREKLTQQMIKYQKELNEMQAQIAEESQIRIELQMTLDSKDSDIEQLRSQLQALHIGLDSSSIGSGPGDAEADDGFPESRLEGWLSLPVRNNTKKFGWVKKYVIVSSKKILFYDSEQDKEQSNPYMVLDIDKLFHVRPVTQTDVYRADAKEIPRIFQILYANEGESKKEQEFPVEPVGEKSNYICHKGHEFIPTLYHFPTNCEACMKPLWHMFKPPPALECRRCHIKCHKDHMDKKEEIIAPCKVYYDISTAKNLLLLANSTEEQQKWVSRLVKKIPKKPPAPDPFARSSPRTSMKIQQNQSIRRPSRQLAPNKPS
RAC-beta serine/threonine-protein kinase (Homo sapiens), sequence (P31751 whole entry): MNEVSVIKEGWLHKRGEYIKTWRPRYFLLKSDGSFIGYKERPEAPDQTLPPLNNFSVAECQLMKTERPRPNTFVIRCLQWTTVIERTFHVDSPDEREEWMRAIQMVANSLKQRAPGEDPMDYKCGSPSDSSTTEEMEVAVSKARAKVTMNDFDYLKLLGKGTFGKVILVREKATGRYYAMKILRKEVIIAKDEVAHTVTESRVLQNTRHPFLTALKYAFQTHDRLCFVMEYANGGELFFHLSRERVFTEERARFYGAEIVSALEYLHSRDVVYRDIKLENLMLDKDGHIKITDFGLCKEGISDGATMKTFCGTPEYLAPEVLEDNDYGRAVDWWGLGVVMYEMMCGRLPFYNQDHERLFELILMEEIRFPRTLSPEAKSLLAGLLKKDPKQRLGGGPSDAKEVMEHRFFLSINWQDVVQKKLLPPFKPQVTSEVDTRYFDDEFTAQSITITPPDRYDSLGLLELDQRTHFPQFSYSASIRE
Ribosomal protein S6 kinase alpha-2 (Homo sapiens), sequence (Q15349 whole entry, the tested form may be a part): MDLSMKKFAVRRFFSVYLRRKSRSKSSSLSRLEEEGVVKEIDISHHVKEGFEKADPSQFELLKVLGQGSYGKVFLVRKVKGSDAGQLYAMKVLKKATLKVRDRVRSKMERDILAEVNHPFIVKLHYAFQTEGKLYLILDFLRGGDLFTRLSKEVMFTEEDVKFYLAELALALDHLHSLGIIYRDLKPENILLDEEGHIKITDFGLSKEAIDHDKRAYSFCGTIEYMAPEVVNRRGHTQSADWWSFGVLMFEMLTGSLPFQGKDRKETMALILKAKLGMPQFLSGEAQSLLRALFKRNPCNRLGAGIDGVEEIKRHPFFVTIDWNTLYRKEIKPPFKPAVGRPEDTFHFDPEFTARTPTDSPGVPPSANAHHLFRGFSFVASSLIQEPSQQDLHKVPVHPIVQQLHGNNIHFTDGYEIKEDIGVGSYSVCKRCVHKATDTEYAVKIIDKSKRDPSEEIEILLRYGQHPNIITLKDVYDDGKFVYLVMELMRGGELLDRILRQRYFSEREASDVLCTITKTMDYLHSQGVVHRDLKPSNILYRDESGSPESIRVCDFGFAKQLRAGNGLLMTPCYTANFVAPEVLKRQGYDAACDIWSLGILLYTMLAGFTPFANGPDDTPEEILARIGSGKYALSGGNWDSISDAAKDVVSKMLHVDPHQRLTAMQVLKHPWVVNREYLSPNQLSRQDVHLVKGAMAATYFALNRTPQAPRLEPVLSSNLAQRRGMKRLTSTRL

Structure (SMILES) | inhibition [1] | inhibition [2] | inhibition [3] | inhibition [4] | inhibition [5] | inhibition [6] | inhibition [7] | inhibition [8] | inhibition [9] | inhibition [10]
Nc1ncc(-c2cccc3ncsc23)cc1-c1ccc2c(c1)CCNC2=O | 0% | 50% | 0% | 50% | 50% | 0% | 0% | – | – | –
Nc1ncc(-c2cccc([N+](=O)[O-])c2F)cc1-c1ccc2c(c1)CCNC2=O | – | – | 0% | – | – | 0% | 0% | – | – | –
CN(C1CC1)S(=O)(=O)c1ccc(-c2cnc(N)c(-c3ccc4c(c3)CCNC4=O)c2)c(F)c1 | 0% | 0% | 0% | 50% | 0% | 0% | 0% | – | – | –
Nc1ncc(-c2ccc(NS(=O)(=O)C3CC3)cc2OC2CCCCC2)cc1-c1ccc2c(c1)CCNC2=O | 50% | 0% | – | – | 0% | – | – | 0% | 0% | > 90%
Nc1ncc(-c2ccc(NS(=O)(=O)C3CC3)cc2F)cc1-c1ccc2c(c1)CCNC2=O | 0% | 0% | – | – | 0% | – | – | 0% | 0% | > 90%
COc1cc(NS(=O)(=O)C2CC2)ccc1-c1cnc(N)c(-c2ccc3c(c2)CCNC3=O)c1 | 0% | 0% | – | 0% | 0% | – | – | 0% | 0% | 0%
